“Also recorded” adds a separate entry of the source. Marks after values point to notes of the source that are not given here.
Key:
rhesus monkeys [1] = assay: Conflict model of anxiolysis (mult FR, FR+PUN); assay type: in vivo, rhesus monkey; conditions: i.v.; for Non-Suppressed, Mean responses/s (SEM) / Suppressed, Mean responses/s (SEM): N = 4 monkeys
Text: The conflict procedure methodology includes a two-component multiple fixed-ratio, fixed-ratio plus punishment schedule (mult FR, FR+PUN). An important feature of this model is that it is highly predictive of clinically active doses in human subjects (Rowlett et al. 2006, Psychopharmacology 184: 201-11). One component of this schedule was associated with a distinctive visual stimulus (e.g., red light) and the other component was associated with a different stimulus (e.g., green light). In each component, completion of 10 responses (FR 10) produced a food pellet followed by a brief (10 sec) timeout period. The component ended following delivery of 5 food pellets or 5 min, whichever occurred first. A 10-min timeout period occurred before each of four cycles with two components (1 red, 1 green) per cycle. When performance in both components of the multiple schedule was stable, responding in one component was suppressed by superimposing a FR schedule of response-produced electric shock. Under the superimposed schedule, every nth response (n=15-25, adjusted for each monkey depending on individual performance) produced shock. Once responding was stable (at least three sessions in which suppressed responding was less than 50% of non-suppressed responding, with no upward or downward trend in response rates in either component), investigational compounds were administered i.v. during the extended timeout periods using a cumulative dosing technique. This technique allowed determination of a four-point dose-response function in a single session.
Table 2 summarizes data for TPA023B in the conflict procedure (n=4 monkeys, 2 females and 2 males), with alprazolam as a positive control. Average responses when vehicle was administered was 2.2 in the non-suppressed component, decreased by ˜98% by shock presentation in the suppressed component (mean=0.05 responses). For non-suppressed responding, TPA023B had no effects on mean rates of responding or percent of control over a 100-fold dose range (0.01 to 1.0 mg/kg, i.v.). […] This effect was similar to that observed with 0.03 mg/kg, i.v., of alprazolam. A striking characteristic of TPA023B in this procedure is the lack of attenuation of rates of responding at higher doses.

rhesus monkeys [2] = assay: i.v. self-administration under progressive-ratio (PR) schedule; assay type: in vivo, rhesus monkey; conditions: dose at which self-administration was highest; n=4 monkeys; FIG. 5
Text: The abuse potential of novel compounds can be determined by use of i.v. self-administration procedures, in which a compound is available to a subject previously trained to press a lever to obtain a known drug of abuse. Our standard procedure is to use a progressive-ratio (PR) schedule, in which an increasing number of responses are required to obtain an injection. The last response requirement completed is referred to as a “break point” (BP) and represents the maximum amount of “work” a subject will perform to obtain the drug or compound.
In the present example, eight rhesus monkeys (4 females, 4 males) were trained to respond under a schedule of i.v. midazolam (a conventional benzodiazepine) injection at 0.03 mg/kg/injection. Once self-administration had been acquired (>20 injections/daily 2-hour sessions), monkeys were trained under the PR schedule as described by Shinday et al. (2013). Daily experimental sessions consisted of five components, each made up of four trials (i.e., 20 trials total). […]
In order to directly compare lorazepam and TPA023B self-administration, we here analyzed BP values at the doses that maintained the highest level of mean injections/session and compared these BP values with those obtained after vehicle tests.

Sprague-Dawley rats = assay: Pulmonary ventilation, whole body plethysmography; assay type: in vivo, rat; conditions: over the doses tested, i.p.; N=8 rats
Description: We first assessed the effects of TPA023B, in comparison with alprazolam, using whole body plethysmography (WBP; DSI systems). For these studies, adult male Sprague-Dawley rats (n=8) were habituated to the chambers for 30 min. The chamber was then filled with 21% oxygen, sealed, and pressure fluctuation measured for 1 min. Next, the chamber was opened and the rats were injected with alprazolam or TPA023B, i.p., and placed into the sealed chamber for a 15 min pretreatment time. The chamber was again filled with 21% oxygen, and for 1 min, fluctuating pressure amounts were recorded to obtain tidal volume (lung capacity), breaths/minute, and minute volume (lung capacity per unit time).

[3] = biological target: α5 subunit-containing GABAA receptors (Homo sapiens, UniProt P18507+P31644); set-up: key to Subtype α5: act as partial positive modulators for particular subtype combinations; none: zero efficacy (i.e., antagonism) at other subtypes; conditions: cited from earlier work
Sequence of α5 subunit-containing GABAA receptors (P31644 32-462): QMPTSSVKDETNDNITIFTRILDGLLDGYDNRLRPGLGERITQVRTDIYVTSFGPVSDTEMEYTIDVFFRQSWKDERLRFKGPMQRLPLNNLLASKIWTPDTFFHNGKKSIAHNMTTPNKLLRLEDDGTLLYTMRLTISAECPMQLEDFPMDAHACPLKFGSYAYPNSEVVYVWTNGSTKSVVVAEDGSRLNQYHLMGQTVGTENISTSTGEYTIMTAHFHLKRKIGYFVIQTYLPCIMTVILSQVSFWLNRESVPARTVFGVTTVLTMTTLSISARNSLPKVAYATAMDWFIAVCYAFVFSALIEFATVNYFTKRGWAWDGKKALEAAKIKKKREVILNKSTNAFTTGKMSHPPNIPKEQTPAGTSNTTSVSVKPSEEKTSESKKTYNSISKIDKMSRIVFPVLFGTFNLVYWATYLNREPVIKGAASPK
Sequence of α5 subunit-containing GABAA receptors (P18507 40-475): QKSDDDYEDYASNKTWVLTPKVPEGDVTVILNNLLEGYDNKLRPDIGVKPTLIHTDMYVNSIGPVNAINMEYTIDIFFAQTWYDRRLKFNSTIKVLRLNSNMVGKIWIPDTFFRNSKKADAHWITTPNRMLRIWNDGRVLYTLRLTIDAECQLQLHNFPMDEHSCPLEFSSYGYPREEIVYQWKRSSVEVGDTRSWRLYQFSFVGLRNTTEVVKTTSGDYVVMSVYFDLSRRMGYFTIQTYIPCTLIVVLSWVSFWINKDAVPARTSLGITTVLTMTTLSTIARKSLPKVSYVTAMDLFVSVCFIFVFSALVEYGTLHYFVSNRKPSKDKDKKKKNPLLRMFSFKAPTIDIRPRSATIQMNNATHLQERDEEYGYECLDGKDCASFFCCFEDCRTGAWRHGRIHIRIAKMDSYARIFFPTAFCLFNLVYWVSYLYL
Sequence of α5 subunit-containing GABAA receptors (P28472 26-473 partner): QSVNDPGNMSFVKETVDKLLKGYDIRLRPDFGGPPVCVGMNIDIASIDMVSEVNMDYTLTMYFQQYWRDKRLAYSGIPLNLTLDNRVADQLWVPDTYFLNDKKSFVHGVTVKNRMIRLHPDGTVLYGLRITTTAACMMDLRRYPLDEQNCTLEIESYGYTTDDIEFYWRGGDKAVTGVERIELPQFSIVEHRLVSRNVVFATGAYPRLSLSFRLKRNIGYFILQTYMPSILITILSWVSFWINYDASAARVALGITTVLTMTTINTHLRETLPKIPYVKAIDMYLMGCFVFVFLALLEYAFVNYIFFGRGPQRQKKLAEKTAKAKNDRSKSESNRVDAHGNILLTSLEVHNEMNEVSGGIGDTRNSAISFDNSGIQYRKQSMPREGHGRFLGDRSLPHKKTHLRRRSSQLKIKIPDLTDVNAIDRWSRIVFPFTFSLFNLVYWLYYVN

[4] = system: CNS benzodiazepine binding sites; conditions: 1.5 mg/70 kg oral, PET; cited from earlier work
[5] = system: benzodiazepine binding sites; conditions: cited from earlier work
rodent, squirrel monkey = conditions: rodent and squirrel monkey models; cited from earlier work
rhesus monkeys [6] = conditions: visual recognition memory and spatial working memory; cited from earlier work

Q: Which “Non-Suppressed, Mean responses/s (SEM)” value (rhesus monkeys [1]; 0.01 mg/kg) does the source give for `CC(C)(O)c1cnn2c(-c3ccc(F)c(-c4c(F)cccc4C#N)c3)cnc2n1` [TPA023B] here?
A: The value was 2.0 (0.08) responses/s.

Q: And the “Suppressed, Mean responses/s (SEM)” value (rhesus monkeys [1]; 0.01 mg/kg)?
A: Its value is 0.03 (0.02) responses/s.

Q: What about the “Non-Suppressed, Mean responses/s (SEM)” value (rhesus monkeys [1]; 0.1 mg/kg) of the same compound?
A: Its value is 2.0 (0.15) responses/s.

Q: And the “Suppressed, Mean responses/s (SEM)” value (rhesus monkeys [1]; 0.1 mg/kg)?
A: Its value is 2.46 (0.40)* responses/s.

Q: And the “Non-Suppressed, Mean responses/s (SEM)” value (rhesus monkeys [1]; 1.0 mg/kg)?
A: The value was 2.1 (0.97) responses/s.

Q: What about the “Suppressed, Mean responses/s (SEM)” value (rhesus monkeys [1]; 1.0 mg/kg) of the same compound?
A: The value was 2.00 (0.75)* responses/s.

Q: And the “effect on non-suppressed responding (mean rates, percent of control)” value (rhesus monkeys [1]; 100-fold dose range, 0.01 to 1.0 mg/kg)?
A: Its value is “no effects”.

Q: What about the “effect on rates of suppressed responding (anti-conflict effect)” value (rhesus monkeys [1]; reaching non-suppressed levels at 0.1 mg/kg) of the same compound?
A: The value was “significantly enhanced”.

Q: What about the “median break point (BP), highest response requirement” value (rhesus monkeys [2]) of the same compound?
A: The value was 160.

Q: And the “any ventilatory parameter (breathing frequency, tidal volume, minute volume)” value (Sprague-Dawley rats)?
A: Its value is “did not alter; also recorded: no effects”.

Q: And the “Subtype α5” value [3]?
A: Its value is “partial”.

Q: And the “occupancy of CNS benzodiazepine binding sites” value [4]?
A: Its value is 50-55%.

Q: And the “occupancy of benzodiazepine binding sites” value ([5]; 1.0 and 3.0 mg/kg)?
A: The value was “up to 95%”.

Q: And the “occupancy of benzodiazepine binding sites in brain” value ([5]; 3.0 and 10 mg/kg)?
A: Its value is no more than 95%.

Q: What about the anxiolytic-like effects (rodent, squirrel monkey) of the same compound?
A: Its anxiolytic-like effects is “anxiolytic-like effects”.

Q: What about the “accuracy in DMTS and SOSS tasks” value (rhesus monkeys [6]) of the same compound?
A: Its value is “did not alter accuracy”.
